Experiments:
rice = experiment: Test B flooded paddy test; assay type: in vivo, Oryza sativa; conditions: Flood, 250 g ai/ha, 13 to 15 days; scale 0 to 100, 0 no effect, 100 complete control
Source text: (§1) At time of treatment, test pots were flooded to 3 cm above the soil surface, treated by application of test compounds directly to the paddy water, and then maintained at that water depth for the duration of the test. Treated plants and controls were maintained in a greenhouse for 13 to 15 days, after which time all species were compared to controls and visually evaluated. […] A dash (-) response means no test result.

duck salad = experiment: Test B flooded paddy test; assay type: in vivo, Heteranthera limosa; conditions: Flood, 250 g ai/ha, 13 to 15 days; scale 0 to 100, 0 no effect, 100 complete control
Source text: as §1

barnyardgrass [1] = experiment: Test B flooded paddy test; assay type: in vivo, Echinochloa crus-galli; conditions: Flood, 250 g ai/ha, 13 to 15 days; scale 0 to 100, 0 no effect, 100 complete control
Source text: as §1

umbrella sedge = experiment: Test B flooded paddy test; assay type: in vivo, Cyperus difformis; conditions: Flood, 250 g ai/ha, 13 to 15 days; scale 0 to 100, 0 no effect, 100 complete control
Source text: as §1

littleseed canarygrass = experiment: Test D preemergence test; assay type: in vivo, Phalaris minor; conditions: scale 0 to 100
Source text: (§2) Seeds of plant species selected from annual bluegrass (Poa annua), blackgrass (Alopecurus myosuroides), downy bromegrass (Bromus tectorum), field violet (Viola arvensis), green foxtail (Setaria viridis), Italian ryegrass (Lolium multiflorum), littleseed canarygrass (Phalaris minor), spring wheat (Triticum aestivum), wild oat (Avena fatua), […]), winter barley (Hordeum vulgare), and winter wheat (Triticum aestivum) were planted and treated preemergence with test chemicals formulated in a non-phytotoxic solvent mixture which included a surfactant. […] A dash (-) response means no test result.

Italian ryegrass = experiment: Test D preemergence test; assay type: in vivo, Lolium multiflorum; conditions: scale 0 to 100
Source text: as §2

sorghum = experiment: Test G preemergence test; assay type: in vivo, Sorghum vulgare; conditions: scale 0 to 100
wild oat = experiment: Test D preemergence test; assay type: in vivo, Avena fatua; conditions: scale 0 to 100
Source text: as §2

barnyardgrass [2] = experiment: Test G preemergence test; assay type: in vivo, Echinochloa crus-galli; conditions: scale 0 to 100
goosegrass = experiment: Test G preemergence test; assay type: in vivo, Eleusine indica; conditions: scale 0 to 100
winter barley = experiment: Test D preemergence test; assay type: in vivo, Hordeum vulgare
Source text: as §2

corn = experiment: Test G preemergence test; assay type: in vivo, Zea mays; conditions: scale 0 to 100
spring wheat = experiment: Test D preemergence test; assay type: in vivo, Triticum aestivum; conditions: scale 0 to 100
Source text: as §2

winter wheat = experiment: Test D preemergence test; assay type: in vivo, Triticum aestivum; conditions: scale 0 to 100
Source text: as §2

millet foxtail = experiment: Test G preemergence test; assay type: in vivo, Setaria italica; conditions: scale 0 to 100
itchgrass = experiment: Test G preemergence test; assay type: in vivo, Rottboellia cochinchinensis; conditions: scale 0 to 100
tall waterhemp = experiment: Test G preemergence test; assay type: in vivo, Amaranthus tuberculatos; conditions: scale 0 to 100
downy bromegrass = experiment: Test D preemergence test; assay type: in vivo, Bromus tectorum; conditions: scale 0 to 100
Source text: as §2

yellow nutsedge = experiment: Test G preemergence test; assay type: in vivo, Cyperus esculentus; conditions: scale 0 to 100
field violet = experiment: Test D preemergence test; assay type: in vivo, Viola arvensis; conditions: scale 0 to 100
Source text: as §2

yellow foxtail = experiment: Test G preemergence test; assay type: in vivo, Pennisetum glaucum; conditions: scale 0 to 100
blackgrass = experiment: Test D preemergence test; assay type: in vivo, Alopecurus myosuroides; conditions: scale 0 to 100
Source text: as §2

field sandbur = experiment: Test G preemergence test; assay type: in vivo, Cenchrus incertus; conditions: scale 0 to 100
woolly cupgrass = experiment: Test G preemergence test; assay type: in vivo, Eriochloa villosa; conditions: scale 0 to 100
soybean = experiment: Test G preemergence test; assay type: in vivo, Glycine max; conditions: scale 0 to 100
annual bluegrass = experiment: Test D preemergence test; assay type: in vivo, Poa annua; conditions: scale 0 to 100
Source text: as §2

CC(c1c(C(F)(F)F)nn(C)c1OC(F)F)S(=O)(=O)c1cccc[n+]1[O-] (stereo not drawn) [Compound 5]
Plant response rating, Rice, Transplanted (rice): 70
Plant response rating, Ducksalad (duck salad): 90
Plant response rating, Barnyardgrass (barnyardgrass [1]): 80
Plant response rating, Umbrella Sedge (umbrella sedge): 100

Cn1nc(C(F)(F)F)c(C[S+]([O-])c2ccc(Cl)c[n+]2[O-])c1OC(F)F (stereo not drawn) [Compound 6]
Plant response rating, Rice, Transplanted (rice): 60
Plant response rating, Ducksalad (duck salad): 100
Plant response rating, Barnyardgrass (barnyardgrass [1]): 80
Plant response rating, Umbrella Sedge (umbrella sedge): 100

Cn1nc(C(F)(F)F)c(C(Cl)S(=O)(=O)c2cccc[n+]2[O-])c1Cl (stereo not drawn) [Compound 12]
Plant response rating, Canarygrass (littleseed canarygrass; 31 g ai/ha): 0
Plant response rating, Canarygrass (littleseed canarygrass; 62 g ai/ha): 0
Plant response rating, Canarygrass (littleseed canarygrass; 125 g ai/ha): 75
Plant response rating, Canarygrass (littleseed canarygrass; 250 g ai/ha): 100
Plant response rating, Ryegrass, Italian (Italian ryegrass; 31 g ai/ha): 0
Plant response rating, Ryegrass, Italian (Italian ryegrass; 62 g ai/ha): 0
Plant response rating, Ryegrass, Italian (Italian ryegrass; 125 g ai/ha): 70
Plant response rating, Ryegrass, Italian (Italian ryegrass; 250 g ai/ha): 100
Plant response rating, Sorghum (sorghum; 31 g ai/ha): 0
Plant response rating, Sorghum (sorghum; 62 g ai/ha): 0
Plant response rating, Sorghum (sorghum; 125 g ai/ha): 60
Plant response rating, Sorghum (sorghum; 250 g ai/ha): 100
Plant response rating, Oat, Wild (wild oat; 31 g ai/ha): 0
Plant response rating, Oat, Wild (wild oat; 62 g ai/ha): 0
Plant response rating, Oat, Wild (wild oat; 125 g ai/ha): 0
Plant response rating, Oat, Wild (wild oat; 250 g ai/ha): 0
Plant response rating, Barnyardgrass (barnyardgrass [2]; 31 g ai/ha): 65
Plant response rating, Barnyardgrass (barnyardgrass [2]; 62 g ai/ha): 95
Plant response rating, Barnyardgrass (barnyardgrass [2]; 125 g ai/ha): 100
Plant response rating, Barnyardgrass (barnyardgrass [2]; 250 g ai/ha): 100
Plant response rating, Goosegrass (goosegrass; 31 g ai/ha): 100
Plant response rating, Goosegrass (goosegrass; 62 g ai/ha): 100
Plant response rating, Goosegrass (goosegrass; 125 g ai/ha): 100
Plant response rating, Goosegrass (goosegrass; 250 g ai/ha): 100
Plant response rating, Barley (winter barley; Preemergence, 62 g ai/ha, scale 0 to 100): 0
Plant response rating, Barley (winter barley; Preemergence, 125 g ai/ha, scale 0 to 100): 0
Plant response rating, Barley (winter barley; Preemergence, 31 g ai/ha, scale 0 to 100): 0
Plant response rating, Barley (winter barley; preemergence, 250 g ai/ha, scale 0 (no effect) to 100 (complete control)): 0
Plant response rating, Corn (corn; 31 g ai/ha): 0
Plant response rating, Corn (corn; 62 g ai/ha): 0
Plant response rating, Corn (corn; 125 g ai/ha): 0
Plant response rating, Corn (corn; 250 g ai/ha): 0
Plant response rating, Wheat, Spring (spring wheat; 31 g ai/ha): 0
Plant response rating, Wheat, Spring (spring wheat; 62 g ai/ha): 0
Plant response rating, Wheat, Spring (spring wheat; 125 g ai/ha): 0
Plant response rating, Wheat, Spring (spring wheat; 250 g ai/ha): 0
Plant response rating, Wheat, Winter (winter wheat; 31 g ai/ha): 0
Plant response rating, Wheat, Winter (winter wheat; 62 g ai/ha): 0
Plant response rating, Wheat, Winter (winter wheat; 125 g ai/ha): 0
Plant response rating, Wheat, Winter (winter wheat; 250 g ai/ha): 0
Plant response rating, Foxtail, Millet (millet foxtail; 31 g ai/ha): 45
Plant response rating, Foxtail, Millet (millet foxtail; 62 g ai/ha): 75
Plant response rating, Foxtail, Millet (millet foxtail; 125 g ai/ha): 100
Plant response rating, Foxtail, Millet (millet foxtail; 250 g ai/ha): 100
Plant response rating, Itchgrass (itchgrass; 31 g ai/ha): 0
Plant response rating, Itchgrass (itchgrass; 62 g ai/ha): 0
Plant response rating, Itchgrass (itchgrass; 125 g ai/ha): 0
Plant response rating, Itchgrass (itchgrass; 250 g ai/ha): 0
Plant response rating, Waterhemp (tall waterhemp; 31 g ai/ha): 0
Plant response rating, Waterhemp (tall waterhemp; 62 g ai/ha): 40
Plant response rating, Waterhemp (tall waterhemp; 125 g ai/ha): 95
Plant response rating, Waterhemp (tall waterhemp; 250 g ai/ha): 100
Plant response rating, Bromegrass, Downy (downy bromegrass; 31 g ai/ha): 0
Plant response rating, Bromegrass, Downy (downy bromegrass; 62 g ai/ha): 0
Plant response rating, Bromegrass, Downy (downy bromegrass; 125 g ai/ha): 60
Plant response rating, Bromegrass, Downy (downy bromegrass; 250 g ai/ha): 60
Plant response rating, Nutsedge, Yellow (yellow nutsedge; 31 g ai/ha): 0
Plant response rating, Nutsedge, Yellow (yellow nutsedge; 62 g ai/ha): 0
Plant response rating, Nutsedge, Yellow (yellow nutsedge; 125 g ai/ha): 0
Plant response rating, Nutsedge, Yellow (yellow nutsedge; 250 g ai/ha): 20
Plant response rating, Field Violet (field violet; 31 g ai/ha): 0
Plant response rating, Field Violet (field violet; 62 g ai/ha): 0
Plant response rating, Field Violet (field violet; 125 g ai/ha): 0
Plant response rating, Field Violet (field violet; 250 g ai/ha): 40
Plant response rating, Foxtail, Yellow (yellow foxtail; 31 g ai/ha): 95
Plant response rating, Foxtail, Yellow (yellow foxtail; 62 g ai/ha): 100
Plant response rating, Foxtail, Yellow (yellow foxtail; 125 g ai/ha): 100
Plant response rating, Foxtail, Yellow (yellow foxtail; 250 g ai/ha): 100
Plant response rating, Blackgrass (blackgrass; 31 g ai/ha): 0
Plant response rating, Blackgrass (blackgrass; 62 g ai/ha): 0
Plant response rating, Blackgrass (blackgrass; 125 g ai/ha): 100
Plant response rating, Blackgrass (blackgrass; 250 g ai/ha): 100
Plant response rating, Sandbur (field sandbur; 31 g ai/ha): 85
Plant response rating, Sandbur (field sandbur; 62 g ai/ha): 85
Plant response rating, Sandbur (field sandbur; 125 g ai/ha): 95
Plant response rating, Sandbur (field sandbur; 250 g ai/ha): 100
Plant response rating, Cupgrass, Woolly (woolly cupgrass; 31 g ai/ha): 0
Plant response rating, Cupgrass, Woolly (woolly cupgrass; 62 g ai/ha): 0
Plant response rating, Cupgrass, Woolly (woolly cupgrass; 125 g ai/ha): 65
Plant response rating, Cupgrass, Woolly (woolly cupgrass; 250 g ai/ha): 70
Plant response rating, Soybean (soybean; 31 g ai/ha): 0
Plant response rating, Soybean (soybean; 62 g ai/ha): 0
Plant response rating, Soybean (soybean; 125 g ai/ha): 0
Plant response rating, Soybean (soybean; 250 g ai/ha): 0
Plant response rating, Bluegrass (annual bluegrass; 31 g ai/ha): 60
Plant response rating, Bluegrass (annual bluegrass; 62 g ai/ha): 100
Plant response rating, Bluegrass (annual bluegrass; 125 g ai/ha): 100
Plant response rating, Bluegrass (annual bluegrass; 250 g ai/ha): 100
